Patent publication US20250340551A1, “SMALL MOLECULE MODULATORS OF STAT6” (Gilead Sciences, Inc., priority 2024, published 2025)

The compounds below were run against human STAT6 (Homo sapiens (Human), UniProt P42226) (assay: Surface plasmon resonance assay (Biacore 8K, binding to immobilized STAT6)). Settings: human STAT6 aa122-658, N-terminal His-tag, CM5 chip, 25° C.; geometric mean; read-out: STAT6 SPR Kd.
Summary of the method: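 Run at 25° C with His-tagged STAT6 aa122-658 (insect-cell expressed) amine-coupled to a CM5 chip, reference-subtracted, in PBS-P+ with 2% DMSO. Multi-cycle kinetics: 60 sec. contact, up to 300 sec. dissociation. Affinity fitted from late report-point binding isotherms, with Rmax both free and fixed to theoretical 1:1.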

Chain of human STAT6 (P42226 122-658): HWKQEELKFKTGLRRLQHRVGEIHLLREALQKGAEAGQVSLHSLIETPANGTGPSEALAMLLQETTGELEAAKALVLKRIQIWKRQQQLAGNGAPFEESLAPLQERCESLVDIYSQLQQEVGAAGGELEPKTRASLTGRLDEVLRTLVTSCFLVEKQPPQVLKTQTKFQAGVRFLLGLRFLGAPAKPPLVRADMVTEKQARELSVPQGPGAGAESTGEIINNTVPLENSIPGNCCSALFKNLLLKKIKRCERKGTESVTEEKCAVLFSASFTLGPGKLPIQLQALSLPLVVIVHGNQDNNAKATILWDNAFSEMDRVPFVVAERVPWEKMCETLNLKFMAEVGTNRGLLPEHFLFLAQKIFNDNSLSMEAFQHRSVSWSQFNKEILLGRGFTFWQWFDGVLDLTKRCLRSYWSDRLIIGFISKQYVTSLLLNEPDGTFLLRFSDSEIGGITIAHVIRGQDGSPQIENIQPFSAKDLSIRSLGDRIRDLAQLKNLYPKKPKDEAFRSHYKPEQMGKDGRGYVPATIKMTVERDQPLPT

Row | SMILES | Kd [nM]
1 | CN(C)C(=O)c1ccc(C2CCN(Cc3cc4c(-c5cnc(N)c(O)c5)ccnc4n3C)CC2)cc1 [Example 1k50, 4-[1-[[4-(6-Amino-5-hydroxy-3-pyridyl)-1-methyl-pyrrolo[2,3-b]pyridin-2-yl]methyl]-4-piperidyl]-N,N-dimethyl-benzamide] | 557
2 | CN(C)C(=O)c1ccc(C2CCN(Cc3cc4c(-c5cnc(N)cc5C#N)ccnc4n3C)CC2)cc1 [Example 1k53, 4-[1-[[4-(6-Amino-4-cyano-3-pyridyl)-1-methyl-pyrrolo[2,3-b]pyridin-2-yl]methyl]-4-piperidyl]-N,N-dimethyl-benzamide] | 962
3 | CN(C)C(=O)c1ccc(C2CCN(Cc3cc4c(-c5cnc(N)nn5)ccnc4n3C)CC2)cc1 [Example 1k54, 4-[1-[[4-(3-Amino-1,2,4-triazin-6-yl)-1-methyl-pyrrolo[2,3-b]pyridin-2-yl]methyl]-4-piperidyl]-N,N-dimethyl-benzamide] | 104
4 | CN(C)C(=O)c1ccc(C2CCN(Cc3cc4c(-c5c(C(F)F)cc(N)cc5C(F)F)ccnc4n3C)CC2)cc1 [Example 1k55, 4-[1-[[4-[4-Amino-2,6-bis(difluoromethyl)phenyl]-1-methyl-pyrrolo[2,3-b]pyridin-2-yl]methyl]-4-piperidyl]-N,N-dimethyl-benzamide] | 1010
5 | COC(=O)c1cc(N)ncc1-c1ccnc2c1cc(CN1CCC(c3ccc(C(=O)N(C)C)cc3)CC1)n2C [Example 1k56, Methyl 2-amino-5-[2-[[4-[4-(dimethylcarbamoyl)phenyl]-1-piperidyl]methyl]-1-methyl-pyrrolo[2,3-b]pyridin-4-yl]pyridine-4-carboxylate] | 1400
6 | CN(C)C(=O)c1ccc(C2CCN(Cc3cc4c(-c5cnc(N)c(C#N)n5)ccnc4n3C)CC2)cc1 [Example 1k57, 4-[1-[[4-(5-Amino-6-cyano-pyrazin-2-yl)-1-methyl-pyrrolo[2,3-b]pyridin-2-yl]methyl]-4-piperidyl]-N,N-dimethyl-benzamide] | 766
7 | CN(C)C(=O)c1ccc(C2CCN(Cc3cc4c(-c5ccc(N)nc5CO)ccnc4n3C)CC2)cc1 [Example 1k58, 4-[1-[[4-[6-Amino-2-(hydroxymethyl)-3-pyridyl]-1-methyl-pyrrolo[2,3-b]pyridin-2-yl]methyl]-4-piperidyl]-N,N-dimethyl-benzamide] | 60.8
8 | COCCNc1ccc(-c2ccnc3c2cc(CN2CCC(c4ccc(C(=O)N(C)C)cc4)CC2)n3C)cn1 [Example 1k59, 4-[1-[[4-[6-(2-Methoxyethylamino)-3-pyridyl]-1-methyl-pyrrolo[2,3-b]pyridin-2-yl]methyl]-4-piperidyl]-N,N-dimethyl-benzamide] | 57.3
9 | CN(C)C(=O)c1ccc(C2CCN(Cc3cc4c(-c5cnc(N)c(-c6nnn[nH]6)c5)ccnc4n3C)CC2)cc1 [Example 1k64, 4-[1-[[4-[6-Amino-5-(2H-tetrazol-5-yl)-3-pyridyl]-1-methyl-pyrrolo[2,3-b]pyridin-2-yl]methyl]-4-piperidyl]-N,N-dimethyl-benzamide] | 1700
10 | Cc1cc(N)nc(C)c1-c1ccnc2c1cc(CN1CCC(c3ccc(C(=O)N(C)C)cc3)CC1)n2C [Example 1k65, 4-[1-[[4-(6-Amino-2,4-dimethyl-3-pyridyl)-1-methyl-pyrrolo[2,3-b]pyridin-2-yl]methyl]-4-piperidyl]-N,N-dimethyl-benzamide] | 254
11 | CN(C)C(=O)c1ccc(C2CCN(Cc3cc4c(-c5ncc(N)cc5F)ccnc4n3C)CC2)cc1 [Example 1k72, 4-[1-[[4-(5-Amino-3-fluoro-2-pyridyl)-1-methyl-pyrrolo[2,3-b]pyridin-2-yl]methyl]-4-piperidyl]-N,N-dimethyl-benzamide] | 75.1
12 | CN(C)C(=O)c1ccc(C2CCN(Cc3cc4c(-c5ncc(N)cc5C(F)(F)F)ccnc4n3C)CC2)cc1 [Example 1k74, 4-[1-[[4-[5-Amino-3-(trifluoromethyl)-2-pyridyl]-1-methyl-pyrrolo[2,3-b]pyridin-2-yl]methyl]-4-piperidyl]-N,N-dimethyl-benzamide] | 7290
13 | CN(C)C(=O)c1ccc(C2CCN(Cc3cc4c(-c5ccc(N)c(C#N)n5)ccnc4n3C)CC2)cc1 [Example 1k75, 4-(1-((4-(5-Amino-6-cyanopyridin-2-yl)-1-methyl-1H-pyrrolo[2,3-b]pyridin-2-yl)methyl)piperidin-4-yl)-N,N-dimethylbenzamide] | 83.9
14 | CN(C)C(=O)c1ccc(C2CCN(Cc3cc4c(-c5ccc(N)c(C(F)(F)F)n5)ccnc4n3C)CC2)cc1 [Example 1k76, 4-[1-[[4-[5-Amino-6-(trifluoromethyl)-2-pyridyl]-1-methyl-pyrrolo[2,3-b]pyridin-2-yl]methyl]-4-piperidyl]-N,N-dimethyl-benzamide] | 999
15 | CCOC(=O)c1nc(-c2ccnc3c2cc(CN2CCC(c4ccc(C(=O)N(C)C)cc4)CC2)n3C)ccc1N [Example 1k78, Ethyl 3-amino-6-(2-((4-(4-(dimethylcarbamoyl)phenyl)piperidin-1-yl)methyl)-1-methyl-1H-pyrrolo[2,3-b]pyridin-4-yl)picolinate] | 59.3

Stronger by Kd, values ahead:

Row | Kd [nM] | SMILES
16 | 53.5 | CN(C)C(=O)c1ccc(C2CCN(Cc3cc4c(-c5cnc(N)cc5C(F)F)ccnc4n3C)CC2)cc1 [Example 1k52, 4-[1-[[4-[6-Amino-4-(difluoromethyl)-3-pyridyl]-1-methyl-pyrrolo[2,3-b]pyridin-2-yl]methyl]-4-piperidyl]-N,N-dimethyl-benzamide]
17 | 35.9 | CN(C)C(=O)c1ccc(C2CCN(Cc3cc4c(-c5ccc(N)c(-c6nnn[nH]6)c5)ccnc4n3C)CC2)cc1 [Example 1k60, 4-[1-[[4-[4-Amino-3-(2H-tetrazol-5-yl)phenyl]-1-methyl-pyrrolo[2,3-b]pyridin-2-yl]methyl]-4-piperidyl]-N,N-dimethyl-benzamide]
18 | 16.5 | CN(C)C(=O)c1ccc(C2CCN(Cc3cc4c(-c5ccc(NCCO)nc5)ccnc4n3C)CC2)cc1 [Example 1k61, 4-[1-[[4-[6-(2-Hydroxyethylamino)-3-pyridyl]-1-methyl-pyrrolo[2,3-b]pyridin-2-yl]methyl]-4-piperidyl]-N,N-dimethyl-benzamide]
19 | 16.3 | CN(C)C(=O)c1ccc(C2CCN(Cc3cc4c(-c5ccc(NCC(=O)O)nc5)ccnc4n3C)CC2)cc1 [Example 1k63, 2-[[5-[2-[[4-[4-(Dimethylcarbamoyl)phenyl]-1-piperidyl]methyl]-1-methyl-pyrrolo[2,3-b]pyridin-4-yl]-2-pyridyl]amino]acetic acid]
20 | 13.5 | CN(C)C(=O)c1ccc(C2CCN(Cc3cc4c(-c5ccc(N)nn5)ccnc4n3C)CC2)cc1 [Example 1k68, 4-[1-[[4-(6-Aminopyridazin-3-yl)-1-methyl-pyrrolo[2,3-b]pyridin-2-yl]methyl]-4-piperidyl]-N,N-dimethyl-benzamide]
21 | 51.9 | [2H]C([2H])([2H])N(C(=O)c1ccc(C2CCN(Cc3cc4c(-c5ccc(NC)cn5)ccnc4n3C)CC2)cc1)C([2H])([2H])[2H] [Example 1k70, 4-[1-[[1-methyl-4-[5-(methylamino)-2-pyridyl]pyrrolo[2,3-b]pyridin-2-yl]methyl]-4-piperidyl]-N,N-bis(trideuteriomethyl)benzamide]
22 | 52.3 | CN(C)C(=O)c1ccc(C2CCN(Cc3cc4c(-c5ccc(N)c(Cl)n5)ccnc4n3C)CC2)cc1 [Example 1k77, 4-(1-((4-(5-Amino-6-chloropyridin-2-yl)-1-methyl-1H-pyrrolo[2,3-b]pyridin-2-yl)methyl)piperidin-4-yl)-N,N-dimethylbenzamide]
